Data on 15 compounds can be found in ChEMBL document CHEMBL1123322, “Muscarinic ganglionic stimulants: conformationally restrained analogues related to [4-[[N-(3-chlorophenyl)carbamoyl]oxy]-2-butynyl]trimethylammonium chloride” (1986).

Holding throughout (type): functional
In assay [1] the target is T1, Muscarinic acetylcholine receptor M1 (Rattus norvegicus) (UniProt P08482).
T1 sequence (whole entry): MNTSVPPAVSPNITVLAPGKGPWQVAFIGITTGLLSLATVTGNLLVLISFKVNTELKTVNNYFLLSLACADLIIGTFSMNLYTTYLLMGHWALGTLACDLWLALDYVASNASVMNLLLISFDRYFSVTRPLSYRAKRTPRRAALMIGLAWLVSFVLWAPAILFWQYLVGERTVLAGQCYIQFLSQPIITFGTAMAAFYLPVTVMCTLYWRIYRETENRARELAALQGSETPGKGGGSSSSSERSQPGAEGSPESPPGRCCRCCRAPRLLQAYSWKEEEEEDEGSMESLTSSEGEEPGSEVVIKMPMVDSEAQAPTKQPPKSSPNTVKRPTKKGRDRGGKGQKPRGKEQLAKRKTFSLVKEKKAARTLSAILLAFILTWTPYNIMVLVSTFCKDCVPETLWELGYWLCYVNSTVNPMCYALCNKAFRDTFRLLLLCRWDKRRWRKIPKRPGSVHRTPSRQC
The experiment in a line: Muscarinic M1 receptor ganglion-stimulating activity as pressor responses in pithed rats; Inactive.

The species entered for assay [2] is Rattus norvegicus. The assay is described as follows: Compound was tested for the production of depressor effects in rat.
The species named for assay [3] is Rattus norvegicus. The assay is described as follows: Compound was tested for the production of piperizine sensitive pressor response.
The species named for assay [4] is Rattus norvegicus. The experiment in a line: Compound was tested for the production of […] sensitive pressor response; Range 20-30 mmHg.

Each structure is given as a SMILES string. The source made the active and inactive calls. No cut-off for these calls is given here. Some results are limits rather than exact numbers.

As to `Cc1cccc(NC(=O)OCC2C=CCN(C)C2)c1` (stereo not given), the outcome in assay [1] was inactive. In the assay listed under Rattus norvegicus [2], the Activity is above 2 µM/kg.

As for `C[N+]1(C)CC=C(COC(=O)Nc2ccc(Cl)cc2)CC1.[Br-]`, the Activity in the assay filed under Rattus norvegicus [3] turned out to be 0.1 µM/kg.

For the compound `CN1CCC=C(COC(=O)Nc2ccccc2Cl)C1`, the result in assay [1] was inactive. In the assay filed under Rattus norvegicus [2], this compound showed an Activity above 2 µM/kg.

Consider `CN1CCC=C(COC(=O)Nc2ccc(Cl)cc2)C1`, for which the outcome in assay [1] was inactive. Besides, the Activity in the assay listed under Rattus norvegicus [2] was above 2 µM/kg.

`CN1CCC(COC(=O)Nc2cccc(Cl)c2)CC1` yielded an Activity in the assay filed under Rattus norvegicus [2] of 0.1 µM/kg.

Turning to `C[N+]1(C)CC=C(COC(=O)Nc2cccc(Cl)c2)CC1.Cc1ccc(S(=O)(=O)[O-])cc1`, the outcome in assay [1] was inactive. In addition, the Activity was 0.1 µM/kg in the assay listed under Rattus norvegicus [3] and above 2 µM/kg in the assay listed under Rattus norvegicus [2].

Take `CN1CCC=C(COC(=O)Nc2cccc(Cl)c2)C1`: in assay [1], the outcome was inactive. The compound further displayed an Activity in the assay listed under Rattus norvegicus [2] above 2 µM/kg.

With `C[N+]1(C)CCC=C(COC(=O)Nc2ccc(Cl)cc2)C1.[I-]`, the Activity in the assay listed under Rattus norvegicus [2] stood at 0.1 µM/kg.

In the assay listed under Rattus norvegicus [2], `C[N+]1(C)CC=C(COC(=O)Nc2cccc(Cl)c2)C1` registered an Activity of 3 µM/kg.

Regarding `CN1CC=C(COC(=O)Nc2cccc(Cl)c2)CC1`, the outcome in assay [1] was inactive. The compound also yielded an Activity in the assay filed under Rattus norvegicus [2] above 2 µM/kg.

`CN1CC=C(COC(=O)Nc2ccc(Cl)cc2)CC1`: the outcome in assay [1] was inactive. Further, the Activity in the assay listed under Rattus norvegicus [2] is above 2 µM/kg.

In the case of `CN1CC=C(COC(=O)Nc2cccc(Cl)c2)C1`, in the assay filed under Rattus norvegicus [4], the “Mean arterial blood pressure” value is given as 20 mmHg.

Turning to `Cc1cccc(NC(=O)OCC2=CCN(C)CC2)c1`, in assay [1], the outcome was inactive. Also, the Activity in the assay listed under Rattus norvegicus [2] was above 2 µM/kg.

As for `C[N+]1(C)CCC=C(COC(=O)Nc2cccc(Cl)c2)C1.[I-]`, the result in assay [1] was inactive. Moreover, the Activity in the assay listed under Rattus norvegicus [2] was above 2 µM/kg.

With `C[N+]1(C)CCC(COC(=O)Nc2cccc(Cl)c2)CC1`, the “Mean arterial blood pressure” value in the assay filed under Rattus norvegicus [4] amounted to 20 mmHg.
